In brackets after ≈: the same amount, converted by molar mass.
Tests used:
Format in all cases: cell-based
[1] = test system: Staphylococcus aureus 209 P; experiment: Minimum Inhibitory Concentration, Staphylococcus aureus 209 P; conditions: Staphylococcus aureus 209 P; for MIC: read-out: Minimum Inhibitory Concentration
Experimental: (§1) anti-microbial activity tests were carried out on the compounds obtained in the Examples.

[2] = test system: Staphylococcus aureus FS 289; experiment: Minimum Inhibitory Concentration, Staphylococcus aureus FS 289; conditions: Staphylococcus aureus FS 289, strain resistant to penicillin; for MIC: FS289, read-out: Minimum Inhibitory Concentration
Experimental: as §1
*Staphylococcus aureus FS 289: strain resistant to penicillin

[3] = test system: Enterobacter aerogeneus No. 75; experiment: Minimum Inhibitory Concentration, Enterobacter aerogeneus No. 75; conditions: Enterobacter aerogeneus No. 75; for MIC: read-out: Minimum Inhibitory Concentration
Experimental: as §1

[4] = test system: Serratia No. 72; experiment: Minimum Inhibitory Concentration, Serratia No. 72
Experimental: as §1

[5] = test system: Klebsiella pneumoniae 602; experiment: Minimum Inhibitory Concentration, Klebsiella pneumoniae 602; conditions: for MIC: Klebsiella pneumoniae, 602, Klebsiella pneumoniae 602, read-out: Minimum Inhibitory Concentration
Experimental: as §1

[6] = test system: Pseudomonas aeruginosa 104; experiment: Minimum Inhibitory Concentration, Pseudomonas aeruginosa 104; conditions: Pseudomonas aeruginosa 104; for MIC: read-out: Minimum Inhibitory Concentration
Experimental: as §1

[7] = test system: Proteus vulgaris HX 19; experiment: Minimum Inhibitory Concentration, Proteus vulgaris HX 19; conditions: Proteus vulgaris HX 19; for MIC: HX19, read-out: Minimum Inhibitory Concentration
Experimental: as §1

[8] = test system: Escherichia coli NIHJ; experiment: Minimum Inhibitory Concentration, Escherichia coli NIHJ; conditions: Escherichia coli NIHJ; for MIC: read-out: Minimum Inhibitory Concentration
Experimental: as §1

| Compound | MIC [1] [µg/mL] | MIC [2] [µg/mL] | MIC [3] [µg/mL] | MIC [4] [µg/mL] | MIC [5] [µg/mL] | MIC [6] [µg/mL] | MIC [7] [µg/mL] | MIC [8] [µg/mL] | Minimum Inhibitory Concentration [1] [µg/mL] | Minimum Inhibitory Concentration [2] [µg/mL] | Minimum Inhibitory Concentration [3] [µg/mL] | Minimum Inhibitory Concentration [4] [µg/mL] | Minimum Inhibitory Concentration ([5]; Klebsiella pneumoniae 602) [µg/mL] | Minimum Inhibitory Concentration [6] [µg/mL] | Minimum Inhibitory Concentration [7] [µg/mL] | Minimum Inhibitory Concentration [8] [µg/mL] |
| --- | --- | --- | --- | --- | --- | --- | --- | --- | --- | --- | --- | --- | --- | --- | --- | --- |
| Nc1cccc(C(NC(=O)c2cnccc2O)C(=O)NC2C(=O)N3C(C(=O)O)=C(CSc4nnc(CO)s4)CSC23)c1 (stereo not shown) [Example 69] | 0.39 (≈ 0.619 µM) | 6.25 (≈ 9.93 µM) | 12.5 (≈ 19.9 µM) | 50 (≈ 79.4 µM) | 6.25 (≈ 9.93 µM) | 6.25 (≈ 9.93 µM) | 0.2 (≈ 0.318 µM) | 6.25 (≈ 9.93 µM) |  |  |  |  |  |  |  |  |
| CSc1cnc2c(O)c(C(=O)NC(C(=O)NC3C(=O)N4C(C(=O)O)=C(CSc5nnnn5C)CSC34)c3cccc(N)c3)cnc2n1 (stereo not shown) [Example 70] | 1.56 (≈ 2.24 µM) | 6.25 (≈ 8.98 µM) | 6.25 (≈ 8.98 µM) | 12.5 (≈ 18 µM) | 3.13 (≈ 4.5 µM) | 6.25 (≈ 8.98 µM) | 0.1 (≈ 0.144 µM) | 3.13 (≈ 4.5 µM) |  |  |  |  |  |  |  |  |
| Cn1nnnc1SCC1=C(C(=O)O)N2C(=O)C(NC(=O)C(NC(=O)c3cnc4cccnc4c3O)c3ccc(N)cc3)C2SC1 (stereo not shown) [Example 71] | 1.56 (≈ 2.4 µM) | 6.25 (≈ 9.63 µM) | 3.13 (≈ 4.83 µM) | 12.5 (≈ 19.3 µM) | 3.13 (≈ 4.83 µM) | 3.13 (≈ 4.83 µM) | 0.1 (≈ 0.154 µM) | 1.56 (≈ 2.4 µM) |  |  |  |  |  |  |  |  |
| Cn1nnnc1SCC1=C(C(=O)O)N2C(=O)C(NC(=O)C(NC(=O)c3cnc4cncnc4c3O)c3cccc(N)c3)C2SC1 (stereo not shown) [Example 72] | 0.78 (≈ 1.2 µM) | 6.25 (≈ 9.62 µM) | 12.5 (≈ 19.2 µM) | 50 (≈ 77 µM) | 6.25 (≈ 9.62 µM) | 6.25 (≈ 9.62 µM) | 0.2 (≈ 0.308 µM) | 3.13 (≈ 4.82 µM) |  |  |  |  |  |  |  |  |
| CSc1ncc2c(O)c(C(=O)NC(C(=O)NC3C(=O)N4C(C(=O)O)=C(CSc5cnn[nH]5)CSC34)c3cccc(N)c3)cnc2n1 (stereo not shown) [Example 73] | 0.78 (≈ 1.15 µM) | 6.25 (≈ 9.18 µM) | 6.25 (≈ 9.18 µM) | 25 (≈ 36.7 µM) | 3.13 (≈ 4.6 µM) | 6.25 (≈ 9.18 µM) | 0.2 (≈ 0.294 µM) | 6.25 (≈ 9.18 µM) |  |  |  |  |  |  |  |  |
| CN(C)c1ccc2ncc(C(=O)NC(C(=O)NC3C(=O)N4C(C(=O)O)=C(CSc5nnnn5C)CSC34)c3cccc(N)c3)c(O)c2n1 (stereo not shown) [Example 74] | 0.78 (≈ 1.13 µM) | 6.25 (≈ 9.03 µM) | 6.25 (≈ 9.03 µM) | 12.5 (≈ 18.1 µM) | 3.13 (≈ 4.52 µM) | 3.13 (≈ 4.52 µM) | 0.1 (≈ 0.145 µM) | 1.56 (≈ 2.26 µM) |  |  |  |  |  |  |  |  |
| Cc1nnc(SCC2=C(C(=O)O)N3C(=O)C(NC(=O)C(NC(=O)c4cnc5sccc5c4O)c4cccc(N)c4)C3SC2)s1 (stereo not shown) [Example 75] | 1.56 (≈ 2.33 µM) | 12.5 (≈ 18.7 µM) | 12.5 (≈ 18.7 µM) | 25 (≈ 37.3 µM) | 3.13 (≈ 4.67 µM) | 6.25 (≈ 9.33 µM) | 0.39 (≈ 0.582 µM) | 6.25 (≈ 9.33 µM) |  |  |  |  |  |  |  |  |
| Cc1nnc(SCC2=C(C(=O)O)N3C(=O)C(NC(=O)C(NC(=O)c4cnc5c(O)ccnc5c4O)c4cccc(N)c4)C3SC2)s1 (stereo not shown) [Example 76] | 0.78 (≈ 1.15 µM) | 6.25 (≈ 9.18 µM) | 3.13 (≈ 4.6 µM) | 12.5 (≈ 18.4 µM) | 3.13 (≈ 4.6 µM) | 3.13 (≈ 4.6 µM) | 0.2 (≈ 0.294 µM) | 3.13 (≈ 4.6 µM) |  |  |  |  |  |  |  |  |
| Cn1nnnc1SCC1=C(C(=O)O)N2C(=O)C(NC(=O)C(NC(=O)c3cnc4ccc(O)nc4c3O)c3cccc(N)c3)C2SC1 (stereo not shown) [Example 77] | 0.78 (≈ 1.17 µM) | 6.25 (≈ 9.4 µM) | 3.13 (≈ 4.71 µM) | 12.5 (≈ 18.8 µM) | 3.13 (≈ 4.71 µM) | 3.13 (≈ 4.71 µM) | 0.1 (≈ 0.15 µM) | 3.13 (≈ 4.71 µM) |  |  |  |  |  |  |  |  |
| CNc1nnc(SCC2=C(C(=O)O)N3C(=O)C(NC(=O)C(NC(=O)c4cnc5cccnc5c4O)c4cccc(N)c4)C3SC2)s1 (stereo not shown) [Example 78] | 0.78 (≈ 1.15 µM) | 6.25 (≈ 9.19 µM) | 6.25 (≈ 9.19 µM) | 12.5 (≈ 18.4 µM) | 3.13 (≈ 4.6 µM) | 3.13 (≈ 4.6 µM) | 0.2 (≈ 0.294 µM) | 3.13 (≈ 4.6 µM) |  |  |  |  |  |  |  |  |
| NCc1nnc(SCC2=C(C(=O)O)N3C(=O)C(NC(=O)C(NC(=O)c4cnc5cccnc5c4O)c4cccc(N)c4)C3SC2)s1 (stereo not shown) [Example 79] | 0.78 (≈ 1.15 µM) | 12.5 (≈ 18.4 µM) | 6.25 (≈ 9.19 µM) | 12.5 (≈ 18.4 µM) | 3.13 (≈ 4.6 µM) | 3.13 (≈ 4.6 µM) | 0.2 (≈ 0.294 µM) | 6.25 (≈ 9.19 µM) |  |  |  |  |  |  |  |  |
| Nc1cccc(C(NC(=O)c2cnc3cccnc3c2O)C(=O)NC2C(=O)N3C(C(=O)O)=C(CSc4n[nH]c(=O)s4)CSC23)c1 (stereo not shown) [Example 80] | 0.78 (≈ 1.17 µM) | 6.25 (≈ 9.37 µM) | 3.13 (≈ 4.69 µM) | 12.5 (≈ 18.7 µM) | 3.13 (≈ 4.69 µM) | 3.13 (≈ 4.69 µM) | 0.2 (≈ 0.3 µM) | 3.13 (≈ 4.69 µM) |  |  |  |  |  |  |  |  |
| Nc1ccc(C(NC(=O)c2cnc3cccnc3c2O)C(=O)NC2C(=O)N3C(C(=O)O)=C(CSc4nnc(CO)s4)CSC23)cc1 (stereo not shown) [Example 81] | 1.56 (≈ 2.29 µM) | 6.25 (≈ 9.18 µM) | 3.13 (≈ 4.6 µM) | 12.5 (≈ 18.4 µM) | 3.13 (≈ 4.6 µM) | 3.13 (≈ 4.6 µM) | 0.1 (≈ 0.147 µM) | 1.56 (≈ 2.29 µM) |  |  |  |  |  |  |  |  |
| Cn1nnc(SCC2=C(C(=O)O)N3C(=O)C(NC(=O)C(NC(=O)c4cnc5cccnc5c4O)c4ccc(N)cc4)C3SC2)n1 (stereo not shown) [Example 82] | 0.78 (≈ 1.2 µM) | 6.25 (≈ 9.63 µM) | 3.13 (≈ 4.83 µM) | 12.5 (≈ 19.3 µM) | 1.56 (≈ 2.4 µM) | 3.13 (≈ 4.83 µM) | 0.1 (≈ 0.154 µM) | 3.13 (≈ 4.83 µM) |  |  |  |  |  |  |  |  |
| Nc1ccc(C(NC(=O)c2cnccc2O)C(=O)NC2C(=O)N3C(C(=O)O)=C(CSc4nnc(CO)s4)CSC23)cc1 (stereo not shown) [Example 83] | 0.39 (≈ 0.619 µM) | 6.25 (≈ 9.93 µM) | 12.5 (≈ 19.9 µM) | 50 (≈ 79.4 µM) | 6.25 (≈ 9.93 µM) | 6.25 (≈ 9.93 µM) | 0.2 (≈ 0.318 µM) | 6.25 (≈ 9.93 µM) |  |  |  |  |  |  |  |  |
| Nc1cccc(C(NC(=O)c2cnccc2O)C(=O)NC2C(=O)N3C(C(=O)O)=C(CSc4nnc(CO)s4)CSC23)c1 (stereo not shown) [Example 84] |  |  |  |  |  |  |  |  | 0.39 | 6.25 | 12.5 | 50 | 3.13 | 6.25 | 0.2 | 6.25 |
| Nc1cccc(C(NC(=O)c2cnccc2O)C(=O)NC2C(=O)N3C(C(=O)O)=C(CSc4ccc(O)nn4)CSC23)c1 (stereo not shown) [Example 85] | 0.39 (≈ 0.64 µM) | 6.25 (≈ 10.3 µM) | 25 (≈ 41 µM) | 100 (≈ 164 µM) | 3.13 (≈ 5.13 µM) | 6.25 (≈ 10.3 µM) | 0.2 (≈ 0.328 µM) | 6.25 (≈ 10.3 µM) |  |  |  |  |  |  |  |  |
| Nc1cccc(C(NC(=O)c2ccnnc2O)C(=O)NC2C(=O)N3C(C(=O)O)=C(CSc4nnc(CO)s4)CSC23)c1 (stereo not shown) [Example 86] | 0.78 (≈ 1.24 µM) | 6.25 (≈ 9.91 µM) | 12.5 (≈ 19.8 µM) | 50 (≈ 79.3 µM) | 6.25 (≈ 9.91 µM) | 12.5 (≈ 19.8 µM) | 0.39 (≈ 0.618 µM) | 12.5 (≈ 19.8 µM) |  |  |  |  |  |  |  |  |
| Nc1cccc(C(NC(=O)c2ccnnc2O)C(=O)NC2C(=O)N3C(C(=O)O)=C(CSc4ccc(O)nn4)CSC23)c1 (stereo not shown) [Example 87] | 0.78 (≈ 1.28 µM) | 6.25 (≈ 10.2 µM) | 12.5 (≈ 20.5 µM) | 50 (≈ 81.9 µM) | 6.25 (≈ 10.2 µM) | 12.5 (≈ 20.5 µM) | 0.78 (≈ 1.28 µM) | 12.5 (≈ 20.5 µM) |  |  |  |  |  |  |  |  |
| Cn1nnnc1SCC1=C(C(=O)O)N2C(=O)C(NC(=O)C(NC(=O)c3cnccc3O)c3ccc(CO)cc3)C2SC1 (stereo not shown) [Example 91] | 0.78 (≈ 1.27 µM) | 6.25 (≈ 10.2 µM) | 25 (≈ 40.8 µM) | 50 (≈ 81.6 µM) | 12.5 (≈ 20.4 µM) | 12.5 (≈ 20.4 µM) | 0.39 (≈ 0.637 µM) | 12.5 (≈ 20.4 µM) |  |  |  |  |  |  |  |  |

Reference: patent US4156724A, “N-acylamino-alpha-arylacetamido cephalosporins and antibacterial compositions and methods containing them” (Sumitomo Chemical Company, Limited, priority 1974, dated 1979)
